Experimental data as given in BindingDB's records for doi:10.1016/j.bmc.2007.03.063 (Zhengzhou University, 2007).

Target: Maltase-glucoamylase (Homo sapiens, UniProt O43451)
Assay: Inhibition of alpha-glucosidase

Maltase-glucoamylase, sequence (O43451 whole entry): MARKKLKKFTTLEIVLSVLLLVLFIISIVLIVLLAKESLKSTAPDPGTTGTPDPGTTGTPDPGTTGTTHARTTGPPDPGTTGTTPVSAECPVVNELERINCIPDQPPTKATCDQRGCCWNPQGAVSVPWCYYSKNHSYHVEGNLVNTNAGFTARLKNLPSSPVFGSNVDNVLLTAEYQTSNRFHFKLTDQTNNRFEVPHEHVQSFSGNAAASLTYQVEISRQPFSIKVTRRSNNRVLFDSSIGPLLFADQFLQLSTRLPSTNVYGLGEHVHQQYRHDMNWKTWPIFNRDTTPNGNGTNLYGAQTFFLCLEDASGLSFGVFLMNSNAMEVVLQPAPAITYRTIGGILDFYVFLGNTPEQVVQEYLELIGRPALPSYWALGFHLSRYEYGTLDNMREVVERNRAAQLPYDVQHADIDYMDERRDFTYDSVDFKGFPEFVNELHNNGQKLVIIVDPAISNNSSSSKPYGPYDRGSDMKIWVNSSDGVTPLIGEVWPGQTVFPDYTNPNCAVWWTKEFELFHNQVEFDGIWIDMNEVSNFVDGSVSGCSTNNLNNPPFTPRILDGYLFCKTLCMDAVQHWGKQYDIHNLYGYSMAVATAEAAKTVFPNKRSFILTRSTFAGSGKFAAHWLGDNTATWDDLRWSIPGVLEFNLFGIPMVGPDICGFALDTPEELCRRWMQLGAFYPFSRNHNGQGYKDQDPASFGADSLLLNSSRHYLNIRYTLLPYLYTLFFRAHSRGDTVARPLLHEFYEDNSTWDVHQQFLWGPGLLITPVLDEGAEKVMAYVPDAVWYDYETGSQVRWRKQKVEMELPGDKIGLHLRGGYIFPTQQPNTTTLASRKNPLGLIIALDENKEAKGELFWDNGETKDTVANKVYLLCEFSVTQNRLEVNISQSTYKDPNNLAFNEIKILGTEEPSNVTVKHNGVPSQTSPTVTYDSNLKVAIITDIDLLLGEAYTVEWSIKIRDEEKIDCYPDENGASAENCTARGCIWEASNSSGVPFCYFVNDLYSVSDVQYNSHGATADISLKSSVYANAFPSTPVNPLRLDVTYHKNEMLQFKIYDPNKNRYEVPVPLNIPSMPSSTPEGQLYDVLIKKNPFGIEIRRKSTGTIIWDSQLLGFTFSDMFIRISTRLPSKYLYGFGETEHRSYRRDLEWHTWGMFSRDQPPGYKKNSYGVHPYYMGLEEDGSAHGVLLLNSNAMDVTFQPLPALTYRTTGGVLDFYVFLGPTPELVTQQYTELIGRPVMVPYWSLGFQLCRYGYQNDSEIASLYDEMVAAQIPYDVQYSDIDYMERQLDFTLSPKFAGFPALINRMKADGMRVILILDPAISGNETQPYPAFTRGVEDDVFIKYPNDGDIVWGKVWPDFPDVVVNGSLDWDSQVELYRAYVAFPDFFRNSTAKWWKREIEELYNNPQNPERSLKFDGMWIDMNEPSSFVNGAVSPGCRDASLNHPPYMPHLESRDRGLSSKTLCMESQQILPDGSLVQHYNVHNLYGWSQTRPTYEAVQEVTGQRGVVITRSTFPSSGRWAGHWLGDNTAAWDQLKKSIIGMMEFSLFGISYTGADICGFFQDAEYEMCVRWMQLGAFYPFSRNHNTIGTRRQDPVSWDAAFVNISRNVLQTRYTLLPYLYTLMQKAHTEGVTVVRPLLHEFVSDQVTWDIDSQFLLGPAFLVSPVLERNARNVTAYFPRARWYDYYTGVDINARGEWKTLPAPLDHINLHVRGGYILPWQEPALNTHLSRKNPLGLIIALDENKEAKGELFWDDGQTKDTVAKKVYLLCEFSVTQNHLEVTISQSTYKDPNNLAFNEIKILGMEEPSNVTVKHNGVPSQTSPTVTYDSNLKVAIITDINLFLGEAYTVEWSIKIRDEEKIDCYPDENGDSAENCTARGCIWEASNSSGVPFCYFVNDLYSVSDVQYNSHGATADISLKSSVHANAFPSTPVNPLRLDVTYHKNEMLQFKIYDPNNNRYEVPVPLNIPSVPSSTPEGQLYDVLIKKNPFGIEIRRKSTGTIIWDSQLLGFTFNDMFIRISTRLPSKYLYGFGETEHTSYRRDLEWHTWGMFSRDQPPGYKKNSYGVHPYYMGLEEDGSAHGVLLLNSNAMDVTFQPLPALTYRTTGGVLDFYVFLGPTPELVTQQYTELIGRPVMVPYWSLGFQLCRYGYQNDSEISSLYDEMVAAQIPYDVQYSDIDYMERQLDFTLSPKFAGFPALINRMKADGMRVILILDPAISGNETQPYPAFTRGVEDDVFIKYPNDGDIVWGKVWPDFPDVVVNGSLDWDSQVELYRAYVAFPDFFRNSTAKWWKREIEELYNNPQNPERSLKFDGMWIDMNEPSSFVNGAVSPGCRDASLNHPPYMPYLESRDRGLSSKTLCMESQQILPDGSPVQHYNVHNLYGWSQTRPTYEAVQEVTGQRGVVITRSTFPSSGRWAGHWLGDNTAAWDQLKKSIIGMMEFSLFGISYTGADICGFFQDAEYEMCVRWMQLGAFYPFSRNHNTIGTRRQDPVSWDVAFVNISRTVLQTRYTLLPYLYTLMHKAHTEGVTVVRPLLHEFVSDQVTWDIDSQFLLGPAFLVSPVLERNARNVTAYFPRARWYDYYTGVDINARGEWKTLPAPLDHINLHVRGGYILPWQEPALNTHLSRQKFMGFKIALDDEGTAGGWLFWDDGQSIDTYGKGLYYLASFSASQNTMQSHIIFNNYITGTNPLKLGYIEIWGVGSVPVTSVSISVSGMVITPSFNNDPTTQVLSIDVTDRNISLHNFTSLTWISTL

Compound | IC50
C=C1CC[C@@H]2[C@](C)(COC(=O)c3cccnc3)[C@H](OC(=O)c3cccnc3)CC[C@@]2(C)[C@@H]1/C=C/C1=CC(=C\C(C)=C\CCC/C=C/C)/OC1=O [14-deoxy-11,12-didehydro-3,19-dinicotinate-15-(2,8-dimethanyl-2,7-octanedieneylidene)-andrographolide] | 28 µM
C=C1CC[C@@H]2[C@](C)(COC(=O)c3cccnc3)[C@H](OC(=O)c3cccnc3)CC[C@@]2(C)[C@@H]1/C=C/C1=CC(=C/c2ccco2)/OC1=O [14-deoxy-11,12-didehydro-3,19-dinicotinate-15-(2-furanmethanylidene)-andrographolide] | 36 µM
C=C1CC[C@@H]2[C@](C)(COC(=O)c3cccnc3)[C@H](OC(=O)c3cccnc3)CC[C@@]2(C)[C@@H]1/C=C/C1=CC(=C\c2ccc(N(C)C)cc2)/OC1=O [14-deoxy-11,12-didehydro-3,19-dinicotinate-15-(p(-dimethylamino)benzylidene)-andrographolide] | 25 µM
C=C1CC[C@@H]2[C@](C)(COC(=O)c3cccnc3)[C@H](OC(=O)c3cccnc3)CC[C@@]2(C)[C@@H]1/C=C/C1=CC(=C\c2ccc(OC)cc2)/OC1=O [14-deoxy-11,12-didehydro-3,19-dinicotinate-15-p-methoxylbenzylidene andrographolide] | 11 µM
C=C1CC[C@@H]2[C@](C)(CO)[C@H](O)CC[C@@]2(C)[C@@H]1/C=C/C1=CC(=C/c2ccco2)/OC1=O [14-deoxy-11,12-didehydro-15-(-2-furanmethanylidene)-andrographolide] | 100 µM
C=C1CC[C@@H]2[C@](C)(CO)[C@H](O)CC[C@@]2(C)[C@@H]1/C=C/C1=CC(=C/c2cc(OC)c(OC)cc2OC)/OC1=O [14-deoxy-11,12-didehydro-15-trimethoxylbenzylideneandrographolide] | 84 µM
C=C1CC[C@@H]2[C@](C)(CO)[C@H](O)CC[C@@]2(C)[C@@H]1/C=C/C1=CC(=C/c2ccc(N(C)C)cc2)/OC1=O [14-deoxy-15-(p-(dimethanylamino)-benzylidene)-11,12-didehydroandrographolide] | 70 µM
C=C1CC[C@@H]2[C@](C)(CO)[C@H](O)CC[C@@]2(C)[C@@H]1/C=C/C1=CC(=C/c2ccc3c(c2)OCO3)/OC1=O [15-(benzo[1,3]dioxole-5-methanylidene)-14-deoxy-11,12-didehydroandrographolide] | 82 µM
C=C1CC[C@@H]2[C@](C)(COC(=O)c3cccnc3)[C@H](OC(=O)c3cccnc3)CC[C@@]2(C)[C@@H]1/C=C/C1=CC(=C\c2cccc(Br)c2)/OC1=O [15-(m-bromoacylbenzylidene)-14-deoxy-11,12-didehydro-3,19-dinicotinateandrographolide] | 14 µM
C=C1CC[C@@H]2[C@](C)(COC(=O)c3cccnc3)[C@H](OC(=O)c3cccnc3)CC[C@@]2(C)[C@@H]1/C=C/C1=CC(=C\c2ccc(Cl)cc2)/OC1=O [15-(p-chlorinebenzylidene)-14-deoxy-11,12-didehydro-3,19-dinicotinateandrographolide] | 6 µM
C=C1CC[C@@H]2[C@](C)(COC(=O)c3cccnc3)[C@H](OC(=O)c3cccnc3)CC[C@@]2(C)[C@@H]1/C=C/C1=CC(=C\c2ccccc2)/OC1=O [15-benzylidene14-deoxy-11,12-didehydro-3,19-dinicotinateandrographolide] | 16 µM
C=C1CC[C@@H]2[C@](C)(CO)[C@H](O)CC[C@@]2(C)[C@@H]1/C=C/C1=CC(=C/c2ccccc2)/OC1=O [15-benzylidene-14-deoxy-11,12-didehydroandrographolide] | 58 µM
